B1: Recombinant His-tagged AtRALF1 (peptide, UniProt Q9SRY3 72-120, looked up)
chain: ATTKYISYQSLKRNSVPCSRRGASYYNCQNGAQANPYSRGCSKIARCRS
modifications: ends and bridges not checked; also: His-tagged
notes: Rapid alkalinization factor 1 (AtRALF1), Arabidopsis thaliana; the active peptide (49 residues by the label RALF1(9–49)), cloned in pET-28b at NdeI/HindIII; printed molecular weight 7,631 Da; The printed mass of 7,631 Da would fit the 49-residue peptide with the His tag of pET-28b still on it (surmise); also called recombinant AtRALF1; R1
B2: Recombinant His-tagged HA-BAK1-ECD (domain or fragment, Arabidopsis thaliana, UniProt Q94F62 26-225, looked up)
chain: NAEGDALSALKNSLADPNKVLQSWDATLVTPCTWFHVTCNSDNSVTRVDLGNANLSGQLVMQLGQLPNLQYLELYSNNITGTIPEQLGNLTELVSLDLYLNNLSGPIPSTLGRLKKLRFLRLNNNSLSGEIPRSLTAVLTLQVLDLSNNPLTGDIPVNGSFSLFTPISFANTKLTPLPASPPPPISPTPPSPAGSNRITG
notes: BRI1-associated receptor kinase 1 (BAK1), Arabidopsis thaliana; extracellular domain; printed molecular weight 25,654.04 Da; HA-BAK1-ECD amplified from the pGADT7 construct, moved to pDEST17; also called BAK1-ED; not shown: HA, N-terminal, kept

Test [1] has as its system plants overexpressing the AtRALF1 gene. The note with it: plants overexpressing AtRALF1 treated with BL; ref [9]; cited from earlier work. From the text: AtRALF1-overexpressing plants are less sensitive to exogenous brassinosteroids (BRs). […] The expansin A5 gene (AtEXPA5), which is involved in the regulation of cell ...
Test [2] concerns AtPRP3, AtHRGP2, CPD and DWF4 genes. The note with it: cited from earlier work. The source says: AtRALF1-overexpressing plants are less sensitive to exogenous brassinosteroids (BRs). […] AtRALF1 also induces two cytochrome P450 monooxygenase genes related to the BR biosynthetic pathway: Constitutive Photomorphism and Dwarfism (CPD) and DWARF4 (DWF4). We exposed the bak1 mutants to the same concentration of AtRALF1 and evaluated the capacity to induce the AtPRP3, AtHRGP2, CPD and DWF4 genes. None of the AtRALF1-inducible genes were ...

Test [3] has as its system BAK1 gene. As to conditions: BL hormone treatment, Arabidopsis plants; ref [29]; cited from earlier work. From the text: It has been previously shown through microarray experiments that the treatment of Arabidopsis plants with AtRALF1 causes BAK1 gene induction by approximately 1.56-fold. Our data are consistent with that previous observation and add a new gene to the list of AtRALF1-inducible genes. […] The fact that AtRALF1 peptide and BL treatment both induce BAK1 gene expression provides further evidence that BAK1 ...

The subject of test [4] is cytosolic Ca^2+ in Arabidopsis seedlings. The note with it: BL; ref [38]; cited from earlier work.
For test [5], the system named is Arabidopsis seedlings, primary root. The test is described as follows: Root growth inhibition assay, vertical plates. In kind it is in vivo, Arabidopsis thaliana. The note with it: bak1 mutants, 0 or 1 μM BL, 8 days.
For test [6], the system named is BAK1. Description: BAK1 phosphorylation assay, anti-phosphothreonine. In kind it is in vivo, Arabidopsis thaliana. The note with it: pBAK1:BAK1-HA roots, 20 min; AtRALF1 1, 2, 10 μM; BL 0.1 μM. As to the method:
Transgenic plants pBAK1:BAK1-6xHA were grown in vertical plates for 10–15 days. The plants were treated with 0.1 μM BL, 2 μM RALF1(9–49), 1 μM, 2 μM or 10 μM AtRALF1 for 20 min. The roots were isolated, and the microsomal fractions were obtained as described above. The microsomal fractions were incubated with anti-HA beads (EZview Red Anti-HA Affinity Gel, Sigma) for 2 h at 4 °C to immunoprecipitate the BAK1 protein. The unbound materials were removed by washing 3 times. Proteins were separated by SDS/PAGE and further analyzed by protein blotting using anti-HA (Thermo Scientific), or anti-phosphothreonine (Novus Biologicals), or anti-phosphoserine (Novus Biologicals) antibodies.

The subject of test [7] is BAK1-GFP. The test is described as follows: Co-immunoprecipitation with microsomal fraction of N. benthamiana leaves expressing BAK1-GFP. Type of test: binding, Arabidopsis thaliana. The note with it: 600 nM peptide, 1 h, 4 °C, anti-GFP antibody. As for the experimental part:
This assay was performed as previously described with some modifications. The BAK1 coding region was amplified from Arabidopsis genomic cDNA using standard PCR with the primers BAK1 Fw and BAK1 Rv (S1 Table). To generate the p35S-BAK1:GFP plasmid, the fragment was cloned into the pENTR D-TOPO vector and later transferred to the pk7FWG2 vector [56]. Leaves from N. benthamiana plants were agroinfiltrated with p19 vector alone and p19 co-expressed with p35S-BAK1:GFP, as previously described. After 3 days, leaves were homogenized in extraction buffer [300 mM sucrose, 100 mM Tris-HCl pH 7.5, 25 mM EDTA, 25 mM NaF, 1 mM Na2MoO4, 1 mM PMSF, 1 mM DTT and protease inhibitor cocktail (Roche), pH 6.2 adjusted] and centrifuged at 1,000 g for 10 min at 4°C, and the supernatant was then centrifuged at 100,000 g for 50 min at 4°C to precipitate the microsomal pellet. The pellet was resuspended in the extraction buffer plus 0.5% Triton-X and incubated with 600 nM recombinant AtRALF1 or 600 nM RALF1(I6A) for 1 h at 4°C. The complexes were incubated with anti-GFP antibody (Santa Cruz Biotechnology) and Sepharose Beads plus protein A (Life Technologies) overnight at 4°C. […] The AtRALF1/BAK1-GFP complex bound to the beads was eluted with denaturing in 10 μl of 1X loading buffer (NuPAGE LDS buffer) at 95°C for 8 min, then analyzed by SDS-PAGE. The proteins were detected as previously described.

The subject of test [8] is Arabidopsis seedlings, primary root. Description: Root growth inhibition assay, liquid medium, 24-well plates. Type of test: in vivo, Arabidopsis thaliana. As to conditions: 10 μM, 2 days. As for the experimental part:
(A) and (B) Arabidopsis seedlings (2 days old) were treated with 10 μM AtRALF1 or water (H20) for 2 days. The values are the mean ± SD of at least 25 seedlings. Triple asterisks indicate P < 0.01 (Student’s t test); ns, not significant. (C) Four-day-old seedlings were transferred to media containing different concentrations of AtRALF1, and the primary root length was measured after 8 days of treatment. The data represent the mean value ± SD of 30 seedlings. […] Representative Arabidopsis seedlings after 8 days of treatment with AtRALF1 are shown below. Seedlings were arranged on plates after the treatment for imaging. Scale bars, 1 cm. (D) Two-day-old seedlings were treated with 10 μM AtRALF1 or water for 2 days, and root cell length was measured after 2 days of treatment. Cells from the root endodermis in the differentiation zone were measured. The values are the mean ± SD of approximately 150 cells. Triple asterisks indicate P < 0.01 (Student’s t test); ns, not significant.
Aliquots of 1 ml of medium containing seeds were distributed into 24-well plates. The peptides (10 μM) were added after 2 days, and the root length was measured 2 days after treatment. To maximize root growth, the seeds were germinated in vertical plates. […] The root length was measured 8 days after treatment unless stated otherwise. Control plants were grown under identical conditions in a peptide-free medium. Quantitative data were obtained as previously described. The experiments were repeated at least 3 times using independent biological replicates with similar results. The data from one representative experiment are shown. For cell length measurements, AtRALF1 peptide (10 μM) was added after 2 days of germination, and the cell length was measured after 2 days of treatment. The cell wall was stained with a 1 mg ml^-1 propidium iodide solution (Sigma) in the dark for 15 min and washed twice with water. Cells of the endodermis of the root differentiation zone were imaged and measured using confocal microscopy (Olympus FV1000). Approximately 30 plants from each genetic background and at least 5 cells per root were measured. The wavelengths for excitation and emission were 555 and 655 nm, respectively. Image processing was completed using the Olympus FluoView software.
Arabidopsis seedlings (2-days-old) were treated with 10 μM AtRALF1 or water (H20) for 2 days. The values are the mean ± SD of at least 25 seedlings. Triple asterisks indicate P < 0.01 (Student’s t test); ns, not significant. (PDF) Click here for additional data file.
Supplementary file pgen.1007053.s002.pdf: S2 Fig Loss-of-function bak1 mutants are sensitive to the inhibitory activity of AtRALF23/34 on root growth. Arabidopsis seedlings (2-day-old) were treated with 10 μM RALF1(9–49), RALF1(I6A), AtRALF1, AtRALF23 and AtRALF34 or water (H20) for 2 days. The values are the mean ± SD of at least 20 seedlings. […] (PDF) Click here for additional data file.

Test [9] has as its system HA-BAK1-ECD. Description: Co-immunoprecipitation in vitro. The note with it: 100 nM each protein, pH 6.3, overnight 4 °C, agarose anti-HA beads. Type of test: binding, Arabidopsis thaliana. As to the method: The purified recombinant proteins AtRALF1 and HA-BAK1-ECD and the synthetic peptides RALF1(9–49) and RALF1(I6A) were combined in 200 μl of interaction buffer pH 6.3 (100 mM NaCl; 1 mM PMSF; 0.5%Triton X; 2.7 mM KCl; 8 mM NaH2PO4; 2 mM KH2PO4) overnight at 4 °C. A 100-nM concentration of each protein was used. This solution was incubated with agarose anti-HA beads (EZview Red Anti-HA Affinity Gel, Sigma) for 30 min at 4 °C to immunoprecipitate the proteins, washed 5 times with interaction buffer, eluted in 1X SDS sample buffer containing 10% β-mercaptoethanol and applied to an SDS-PAGE gel. The immunoprecipitated HA-BAK1-ECD and co-immunoprecipitated AtRALF1 were analyzed by protein blotting as described. The primary and secondary antibodies used to detect AtRALF1 were anti-AtRALF1 (1:10,000, Celula B, Immunology Laboratory, UFRGS, Brazil) and goat anti-rabbit HRP-conjugated secondary antibody (1: 10,000, BioRad), respectively.

Test [10] deals with fer4 mutant. The note with it: ref [10]; cited from earlier work. The source says:
Isothermal titration calorimetry has been used to estimate Kd values for plant ligand-receptor kinase pairs, IDA/ HAESA and AtRALF23/FERONIA are among them and our Kd values are consistent with these reported values. […] Previous studies have shown the possibility of additional sites for AtRALF1 binding. In cell suspension cultures of tomato, tobacco and alfalfa, the ^125I-azido-RALF peptide cross-linked to two p ...

In test [11] the target is B2. The test is described as follows: ITC; VP ITC; 0.7 mM BAK1-ECD in the syringe (28 injections of 10 μl) into 0.03 mM peptide in the 1.4 ml cell; 15 mM HEPES pH 6.8; 25 °C; three independent experiments. The note with it: both partners purified. (In general: Isothermal titration calorimetry measures the heat released or taken up as one component is titrated into another.)

In test [12] the target is B1. The description is as above. The note with it: both partners purified.

Here are results for five molecules from paper PMC5656322, “BAK1 is involved in AtRALF1-induced inhibition of root cell expansion” (PLoS Genetics, 2017).

The Kd is the concentration at which binding is half-saturated. As a reminder, the stoichiometry N is a count of units in the complex or per binding partner.

Several values for one entry are separate records, joined by “and”; a condition that tells them apart may be missing. Identical values can stand only once. Where no end group is shown, it is not given here.

For the molecule `CC(C)[C@H](C)[C@@H](O)[C@H](O)[C@@H](C)[C@H]1CC[C@H]2[C@@H]3COC(=O)[C@H]4C[C@H](O)[C@H](O)C[C@]4(C)[C@H]3CC[C@]12C` [BL, brassinolide, reference compound], in test [1], the hypocotyl elongation entry is listed as “a minor increase in hypocotyl elongation”, the “number of lateral roots” value was “no change in the number of lateral roots” and the root length entry is given as “no increase in root length”. Besides, the AtRALF23 gene expression entry in test [2] (Arabidopsis seedlings, BL, ref [4],[19]) was “down-regulated”. Besides, in [2] (BL treatment, ref [9]), the “CPD and DWF4 gene expression” value is reported as “down-regulated by BL treatment”. In [2] (roots of treated seedlings, ref [16]–[18]), the AtEXPA5 expression entry is given as “induced by BL”. In addition, the BAK1 gene induction entry in test [3] is on record as “promotes BAK1 gene induction in Arabidopsis plants”. The “mobilization of Ca^2+, dependence on BAK1” value in test [4] was “independent of BAK1”. The “sensitivity of root growth to BL” value in test [5] is reported as “Reduced sensitivity”. In addition, the “BAK1 phosphorylation in threonine residues” value in test [6] is “increase resulting from the treatment of the seedlings with BL”.

In the case of “RALF1(I6A): inactive AtRALF1 peptide which has an Ile replaced by an Ala in the conserved YISY domain (ATTKYASYQSLKRNSVPCSRRGASYYNCQNGAQANPYSRGCSKIARCRS; ends and bridges not checked; cysteine pairing not given here; UniProt Q9SRY3 72-120, looked up, variant I6A)”, the “co-immunoprecipitation with BAK1-GFP” value in test [7] was “did not co-immunoprecipitate with BAK1-GFP”. Besides, in test [8], the “activity of negative control peptides on root growth” value is “inactive”. The “co-immunoprecipitation with HA-BAK1-ECD” value in test [9] is on record as “did not co-immunoprecipitate with BAK1”.

Consider “^125I-labeled AtRALF1: AtRALF1 radiolabeled with ^125I, earlier study [10] (ATTKYISYQSLKRNSVPCSRRGASYYNCQNGAQANPYSRGCSKIARCRS; ends and bridges not checked; also: radiolabeled with 125I; UniProt Q9SRY3 72-120, looked up)”, for which, in test [10], the “reduction of specific binding of 125I-labeled AtRALF1” value is on record as “approximately 40%”.

In the case of B1, the Kd in test [11] is 4.6 µM and 4.9 µM and 5.8 µM.

On to B2, for which, in test [12], the “stoichiometry N” value is 1.5 and 0.5 and 1.27.
